Results taken from paper PMC11061419, “Identification of novel small molecule inhibitors of twin arginine translocation (Tat) pathway and their effect on the control of Campylobacter jejuni in chickens” (Frontiers in Microbiology, 2024).
Converted amounts (≈) assume the structure as drawn.

What was measured:
[1] = test system: intracellular C. jejuni 81–176 in Caco-2 cells; assay: Copper sulfate sensitivity dose–response assay in infected Caco-2 colon epithelial cells; format: cell-based, Campylobacter jejuni; settings: infected Caco-2 cells, 24 h, 0.5 mM CuSO4
Procedure: The intracellular reduction in C. jejuni in the presence of a given SM (T1-T8) and 0.5 mM CuSO4 were evaluated using Caco-2 cells, as previously described ([Kumar et al., 2016]; [Deblais et al., 2019]). In brief, cells were infected for 2 h using a multiplicity of infection (MOI) of 100. Infected cells were treated with SM at a final concentration ranging between 5 and 0.315 μg/mL and incubated at 37°C for 24 h in a humidified 5% CO2 incubator. Following incubation, cells were washed once with 1X PBS, lysed with 0.1% Triton-100X, serially 10-fold diluted in 1X PBS, and plated on MH agar plate. Plates were incubated in microaerophilic conditions at 42°C for 24 h, to determine the intracellular survival. Cells not infected and not treated and cells infected and treated with 1% DMSO were used as controls (N = two independent experiments with four technical replicate for each SM).

C. jejuni 81–176 = assay: Copper sulfate sensitivity dose–response assay in vitro (MIC/MBC); format: cell-based, Campylobacter jejuni; settings: for MBC / MIC: Campylobacter jejuni, 0.5 mM CuSO4, head displaced; for MBC: read-out: MBC, C. jejuni (Table S5); for MIC: read-out: MIC, C. jejuni (Table S4); for C. jejuni 81–176 in vitro MBC: minimal bactericidal concentration in presence of 0.5 mM CuSO4; for C. jejuni 81–176 in vitro MIC: minimal bacteriostatic concentration in presence of 0.5 mM CuSO4
Procedure: (§1) In total, 19 SMs were two-fold serially diluted to obtain a final SM concentration ranging from 6.25 to 0.012 μg/mL. C. jejuni 81–176 was then treated with a determined concentration of SM, as described in the copper sensitivity assay. […] The lowest bactericidal SM concentration was considered the MBC (no increase in OD600 over time and no viable cells were recovered on agar plate after challenge) (N = 3 replicates per SM). […] However, these SMs were two-fold serially diluted to obtain a final SM concentration ranging from 5 μg to 0.0625 μg for testing (N = two independent experiments with four technical replicate for each SM).

C. jejuni Au-45 = assay: as above; format: cell-based; settings: Campylobacter jejuni; for MIC: AU45, read-out: MIC, Au-45 (Table S4); for MBC: AU45, 0.5 mM CuSO4, read-out: MBC, Au-45 (Table S5)
Procedure: (§2) Campylobacter jejuni 81–176 was the primary model strain used for the selection of the potential Tat-dependent inhibitors by high-throughput screening. C. jejuni 81–176 is resistant to 0.5 and 1 mM CuSO4 (Supplementary Figure S1). C. jejuni 81–176 tatC knockout mutant (C. jejuni ΔtatC) was used to confirm the Tat-dependent inhibitory effect of the selected SM. C. jejuni ΔtatC is susceptible to 0.5 mM and higher of CuSO4 ([Rajashekara et al., 2009]). The specificity of the Tat-dependent inhibitors was also tested on 11 additional Campylobacter strains (C. coli ATCC33559 and 10 other C. jejuni strains isolated from chickens) and 7 commensal/beneficial bacteria (Supplementary Table S1). The […] (Au-13, Au-20, Au-38, Au-39, Au-47, Au-50, Au-24, Au-32, Au-44, and Au-45) were selected based on their single nucleotide polymorphism (SNP)-type and percent of prevalence in chickens ([Merchant-Patel et al., 2008]; [Kumar et al., 2016]). Additional details about the bacterial strains are shown in Supplementary Table S1.
as §1

C. jejuni Au-24 = assay: as above; format: cell-based; settings: Campylobacter jejuni; for MIC: AU24, read-out: MIC, Au-24 (Table S4); for MBC: AU24, 0.5 mM CuSO4, read-out: MBC, Au-24 (Table S5)
Procedure: as §2, §1

C. jejuni Au-20 = assay: as above; format: cell-based; settings: Campylobacter jejuni; for MIC: AU20, read-out: MIC, Au-20 (Table S4); for MBC: AU20, 0.5 mM CuSO4, read-out: MBC, Au-20 (Table S5)
Procedure: as §2, §1

C. jejuni Au-38 = assay: as above; format: cell-based; settings: Campylobacter jejuni; for MIC: AU38, read-out: MIC, Au-38 (Table S4); for MBC: AU38, 0.5 mM CuSO4, read-out: MBC, Au-38 (Table S5)
Procedure: as §2, §1

C. jejuni Au-50 = assay: as above; format: cell-based; settings: Campylobacter jejuni; for MIC: AU50, read-out: MIC, Au-50 (Table S4); for MBC: AU50, 0.5 mM CuSO4, read-out: MBC, Au-50 (Table S5)
Procedure: as §2, §1

C. jejuni Au-32 = assay: as above; format: cell-based; settings: Campylobacter jejuni; for MIC: AU32, read-out: MIC, Au-32 (Table S4); for MBC: AU32, 0.5 mM CuSO4, read-out: MBC, Au-32 (Table S5)
Procedure: as §2, §1

C. jejuni Au-13 = assay: as above; format: cell-based; settings: Campylobacter jejuni; for MIC: AU13, read-out: MIC, Au-13 (Table S4); for MBC: AU13, 0.5 mM CuSO4, read-out: MBC, Au-13 (Table S5)
Procedure: as §2, §1

C. jejuni Au-39 = assay: as above; format: cell-based; settings: Campylobacter jejuni; for MIC: AU39, read-out: MIC, Au-39 (Table S4); for MBC: AU39, 0.5 mM CuSO4, read-out: MBC, Au-39 (Table S5)
Procedure: as §2, §1

C. jejuni Au-47 = assay: as above; format: cell-based; settings: Campylobacter jejuni; for MIC: AU47, read-out: MIC, Au-47 (Table S4); for MBC: AU47, 0.5 mM CuSO4, read-out: MBC, Au-47 (Table S5)
Procedure: as §2, §1

C. jejuni Au-44 = assay: as above; format: cell-based; settings: Campylobacter jejuni; for MIC: AU44, read-out: MIC, Au-44 (Table S4); for MBC: AU44, 0.5 mM CuSO4, read-out: MBC, Au-44 (Table S5)
Procedure: as §2, §1

C. coli ATCC33559 = assay: as above; format: cell-based; settings: Campylobacter coli; for MIC: ATCC33559, read-out: MIC, C. coli (Table S4); for MBC: ATCC33559, 0.5 mM CuSO4, read-out: MBC, C. coli (Table S5)
Procedure: as §2, §1

[2] = test system: Commensal/beneficial gut bacteria (n = 7); assay: Activity spectrum against commensal/beneficial gut bacteria at 6.25 μg/mL; format: cell-based; settings: 6.25 μg/mL SM; for Commensal/beneficial gut bacteria inhibited at 6.25 μg/mL (species): Ef Enterococcus faecalis, Lb Levilactobacillus brevis, LGG Lacticaseibacillus rhamnosus GG
Procedure: A similar experiment was performed with seven commensal/beneficial gut bacteria to determine species specificity of these SMs. In brief, an overnight suspension was normalized at 0.05 OD600 using the appropriate medium and challenged with 6.25 μg/mL of SM. Details about the strains and their growing conditions are shown in Supplementary Table S1. Medium alone and 1% DMSO were used as controls (N = 3 replicates per SM).

[3] = test system: Campylobacter spp. (12 strains); assay: Activity spectrum against Campylobacter strains at 6.25 μg/mL with 0.5 mM CuSO4; format: cell-based, Campylobacter jejuni, Campylobacter coli; settings: 6.25 μg/mL SM
FDH = settings: 1 mM of azide; ref Davies, 2017; cited from earlier work

SMILES | MBC (C. jejuni 81–176) [µg/mL] | MIC (C. jejuni 81–176) [µg/mL] | C. jejuni 81–176 in vitro MBC (C. jejuni 81–176) [µg/mL] | C. jejuni 81–176 in vitro MIC (C. jejuni 81–176) [µg/mL] | MIC (C. jejuni Au-45) [µg/mL] | MBC (C. jejuni Au-45) [µg/mL] | MIC (C. jejuni Au-24) [µg/mL] | MBC (C. jejuni Au-24) [µg/mL] | MIC (C. jejuni Au-20) [µg/mL] | MBC (C. jejuni Au-20) [µg/mL] | MIC (C. jejuni Au-38) [µg/mL] | MBC (C. jejuni Au-38) [µg/mL] | MIC (C. jejuni Au-50) [µg/mL] | MBC (C. jejuni Au-50) [µg/mL] | MIC (C. jejuni Au-32) [µg/mL] | MBC (C. jejuni Au-32) [µg/mL] | MIC (C. jejuni Au-13) [µg/mL] | MBC (C. jejuni Au-13) [µg/mL] | MIC (C. jejuni Au-39) [µg/mL] | MBC (C. jejuni Au-39) [µg/mL] | also measured
CN(C)c1ccc(C(=O)Nc2ccc(CN3CCS(=O)(=O)CC3)cc2)cc1 [T3] | > 5 | 0.04 (≈ 0.103 µM) | >5 | 0.04 | 6.25 (≈ 16.1 µM) | > 5 | 6.25 (≈ 16.1 µM) | > 5 | 6.25 (≈ 16.1 µM) | > 5 | 6.25 (≈ 16.1 µM) | > 5 | 6.25 (≈ 16.1 µM) | > 5 | 6.25 (≈ 16.1 µM) | > 5 | 6.25 (≈ 16.1 µM) | > 5 | 6.25 (≈ 16.1 µM) | > 5 | C. jejuni 81–176 MBC in Caco2 cells [1]: 5 µg/mL; MIC (C. jejuni Au-47): 6.25 µg/mL (≈ 16.1 µM); MBC (C. jejuni Au-47): > 5 µg/mL; MIC (C. jejuni Au-44): 6.25 µg/mL (≈ 16.1 µM); MBC (C. jejuni Au-44): > 5 µg/mL; MIC (C. coli ATCC33559): 1 µg/mL (≈ 2.58 µM); MBC (C. coli ATCC33559): > 5 µg/mL; Growth inhibition at 6.25 μg/mL, Commensal/beneficial gut bacteria (strains inhibited/tested) [2]: 2/7; Commensal/beneficial gut bacteria inhibited at 6.25 μg/mL (species) [2]: LGG and Ef; Growth inhibition at 6.25 μg/mL, Campylobacter spp. (strains inhibited/tested) [3]: 12/12
CCc1ccnc(NS(=O)(=O)c2ccc(C)c(Cl)c2)c1 [T4] | > 5 | 0.01 (≈ 0.0322 µM) | >5 | 0.01 | 6.25 (≈ 20.1 µM) | > 5 | 6.25 (≈ 20.1 µM) | > 5 | 0.62 (≈ 1.99 µM) | > 5 | 6.25 (≈ 20.1 µM) | > 5 | 0.31 (≈ 0.997 µM) | > 5 | 6.25 (≈ 20.1 µM) | > 5 | 0.62 (≈ 1.99 µM) | > 5 | 6.25 (≈ 20.1 µM) | > 5 | MIC (C. jejuni Au-47): 0.62 µg/mL (≈ 1.99 µM); MBC (C. jejuni Au-47): > 5 µg/mL; MIC (C. jejuni Au-44): 6.25 µg/mL (≈ 20.1 µM); MBC (C. jejuni Au-44): > 5 µg/mL; MIC (C. coli ATCC33559): 6.25 µg/mL (≈ 20.1 µM); MBC (C. coli ATCC33559): > 5 µg/mL; Growth inhibition at 6.25 μg/mL, Commensal/beneficial gut bacteria (strains inhibited/tested) [2]: 1/7; Commensal/beneficial gut bacteria inhibited at 6.25 μg/mL (species) [2]: Ef; Growth inhibition at 6.25 μg/mL, Campylobacter spp. (strains inhibited/tested) [3]: 12/12
CCOC(=O)C1CCN(CC(=O)Nc2cccc3cccnc23)CC1 [T5] | 0.04 (≈ 0.117 µM) | 0.01 (≈ 0.0293 µM) | 0.04 | 0.01 | 5 (≈ 14.6 µM) | > 5 | 2.5 (≈ 7.32 µM) | 5 (≈ 14.6 µM) | 2.5 (≈ 7.32 µM) | 5 (≈ 14.6 µM) | 2.5 (≈ 7.32 µM) | 5 (≈ 14.6 µM) | 5 (≈ 14.6 µM) | > 5 | 5 (≈ 14.6 µM) | > 5 | 0.62 (≈ 1.82 µM) | 1.24 (≈ 3.63 µM) | 5 (≈ 14.6 µM) | > 5 | MIC (C. jejuni Au-47): 2.5 µg/mL (≈ 7.32 µM); MBC (C. jejuni Au-47): 5 µg/mL (≈ 14.6 µM); MIC (C. jejuni Au-44): 2.5 µg/mL (≈ 7.32 µM); MBC (C. jejuni Au-44): 5 µg/mL (≈ 14.6 µM); MIC (C. coli ATCC33559): 0.02 µg/mL (≈ 0.0586 µM); MBC (C. coli ATCC33559): 0.04 µg/mL (≈ 0.117 µM); Growth inhibition at 6.25 μg/mL, Commensal/beneficial gut bacteria (strains inhibited/tested) [2]: 1/7; Commensal/beneficial gut bacteria inhibited at 6.25 μg/mL (species) [2]: Ef; Growth inhibition at 6.25 μg/mL, Campylobacter spp. (strains inhibited/tested) [3]: 12/12
CC(C)n1c(S)nc2c1c(=O)[nH]c(=O)n2C [T6] | 2.5 (≈ 10.4 µM) | 1.25 (≈ 5.2 µM) | 2.5 | 1.25 | 1.25 (≈ 5.2 µM) | 2.5 (≈ 10.4 µM) | 1.25 (≈ 5.2 µM) | 2.5 (≈ 10.4 µM) | 1.25 (≈ 5.2 µM) | 2.5 (≈ 10.4 µM) | 1.25 (≈ 5.2 µM) | 2.5 (≈ 10.4 µM) | 1.25 (≈ 5.2 µM) | 2.5 (≈ 10.4 µM) | 1.25 (≈ 5.2 µM) | 2.5 (≈ 10.4 µM) | 1.25 (≈ 5.2 µM) | 2.5 (≈ 10.4 µM) | 1.25 (≈ 5.2 µM) | 2.5 (≈ 10.4 µM) | MIC (C. jejuni Au-47): 1.25 µg/mL (≈ 5.2 µM); MBC (C. jejuni Au-47): 2.5 µg/mL (≈ 10.4 µM); MIC (C. jejuni Au-44): 1.25 µg/mL (≈ 5.2 µM); MBC (C. jejuni Au-44): 2.5 µg/mL (≈ 10.4 µM); MIC (C. coli ATCC33559): 1.25 µg/mL (≈ 5.2 µM); MBC (C. coli ATCC33559): 2.5 µg/mL (≈ 10.4 µM); Growth inhibition at 6.25 μg/mL, Commensal/beneficial gut bacteria (strains inhibited/tested) [2]: 0/7; Growth inhibition at 6.25 μg/mL, Campylobacter spp. (strains inhibited/tested) [3]: 12/12
[N-]=[N+]=[N-] [azide] |  |  |  |  |  |  |  |  |  |  |  |  |  |  |  |  |  |  |  |  | inhibition of FDH activity (FDH): 30%
